Experiments:
[1] = Sensory analysis of relative sweetness intensity and taste quality of aqueous solutions compared with sucrose solutions
Experimental: The relative sweetness intensity and quality of CP-54,802, AS-K and mixtures of CP-54,802 and AS-K were determined by sensory analysis. These determinations were carried out in a facility designed for controlled tasting, flavor research and evaluation of food additives, including a separate preparation room and individual tasting booths with complete air-conditioning, controlled lighting, running water and a sink for expectoration.
Aqueous solutions of sucrose were prepared at concentrations (w/w) of 2, 3, 4, 5, 6, 7, 8, 9, 10, 11 and 12% along with a sample of one of the test compounds at the levels specified in the test experiments. A beaker containing a solution of the test compound identified only by a coded digit was submitted to the taster by a co-worker along with a beaker containing the above sucrose solutions. The sweetness intensity of the test compound was compared with one or more of the sucrose control solutions to determine whether that particular sucrose reference sample was of lesser, greater or equal sweetness. The taste quality of the test sample was then characterized by comparison with the sucrose solution. In some instances a reference aqueous solution containing either CP-54,802 and/or AS-K alone was also used to characterize the taste quality of mixture of CP-54,802 and AS-K.
After selecting the particular sucrose solution equal in sweetness to the AS-K solution, subsequent test comparisons of the AS-K and sucrose solution at closest sweetness intensity were performed to recheck the intensity value and to characterize the taste quality of the AS-K. By this means, the following results were obtained: […]

[2] = Taste quality and sweetening potency in typically prepared edible products (Table III)
Source text: The ultimate compositions for edible use, or for use as oral hygienic products or as formulated medicinal agents, are readily prepared, using methods generally known in the food technology and pharmaceutical arts. The taste quality of such typically prepared edible products prepared with sucrose, with AS-K alone and with one of present combinations as sweetening agent are summarized in Table III.

[3] = cited from earlier work
[4] = at 2% sucrose equivalent in water
[5] = at 3% sucrose equivalent in water
[6] = at 4% sucrose equivalent in water
[7] = at 5% sucrose equivalent in water
[8] = at 6% sucrose equivalent in water
[9] = at 7% sucrose equivalent in water, AS-K values above 6% only approximate
[10] = at 8% sucrose equivalent in water, AS-K values above 6% only approximate
[11] = at 9% sucrose equivalent in water, AS-K values above 6% only approximate
[12] = at 10% sucrose equivalent in water, AS-K values above 6% only approximate
[13] = compared to 10% sucrose in water
[14] = equal in sweetness to 2% sucrose (w/w) in water
[15] = equal in sweetness to 3% sucrose (w/w) in water
[16] = equal in sweetness to 4% sucrose (w/w) in water
[17] = equal in sweetness to 5% sucrose (w/w) in water
[18] = equal in sweetness to 6% sucrose (w/w) in water
[19] = equal in sweetness to 7% sucrose (w/w) in water
[20] = equal in sweetness to 8% sucrose (w/w) in water
[21] = equal in sweetness to 9% sucrose (w/w) in water
[22] = equal in sweetness to 10% sucrose (w/w) in water

Question: Which “Potency Sucrose = 1” value [1, 4] does the source give for CC1=CC(=O)NS(=O)(=O)O1 [AS-K, 6-Methyl-1,2,3-oxathiazin-4(3H)-one-2,2-dioxide] here?
Answer: The value was 250 Sucrose = 1.

Question: What about the “Potency Sucrose = 1” value [1, 5] of the same compound?
Answer: The value was 200 Sucrose = 1.

Question: What about the “Potency Sucrose = 1” value [1, 6] of the same compound?
Answer: Its value is 160 Sucrose = 1.

Question: What about the “Potency Sucrose = 1” value [1, 7] of the same compound?
Answer: The value was 110 Sucrose = 1.

Question: What about the “Potency Sucrose = 1” value [1, 8] of the same compound?
Answer: Its value is 90 Sucrose = 1.

Question: And the “Potency Sucrose = 1” value [1, 9]?
Answer: Its value is 90 Sucrose = 1.

Question: And the “Potency Sucrose = 1” value [1, 10]?
Answer: The value was 90 Sucrose = 1.

Question: What about the “Potency Sucrose = 1” value [1, 11] of the same compound?
Answer: The value was 85 Sucrose = 1.

Question: And the “Potency Sucrose = 1” value [1, 12]?
Answer: The value was 80 Sucrose = 1.

Question: What about the Relative sweetness ([1]; at concentrations equivalent to 6-10% sucrose) of the same compound?
Answer: Its Relative sweetness is no more than 90.

Question: What about the “Concentration (g/100 ml) ≡ 10% Sucrose” value [1, 13] of the same compound?
Answer: The value was 0.1250 g/100 ml.

Question: And the “Potency of Mixture” value [1, 13]?
Answer: The value was 80.

Question: What about the “Equivalent Concentration %” value [1, 14] of the same compound?
Answer: The value was 0.0080%.

Question: What about the “Equivalent Concentration %” value [1, 15] of the same compound?
Answer: Its value is 0.0150%.

Question: What about the “Equivalent Concentration %” value [1, 16] of the same compound?
Answer: The value was 0.0250%.

Question: And the “Equivalent Concentration %” value [1, 17]?
Answer: Its value is 0.0455%.

Question: What about the “Equivalent Concentration %” value [1, 18] of the same compound?
Answer: The value was 0.0667%.

Question: What about the “Equivalent Concentration %” value [1, 19] of the same compound?
Answer: The value was 0.0777%.

Question: What about the “Equivalent Concentration %” value [1, 20] of the same compound?
Answer: The value was 0.0889%.

Question: What about the “Equivalent Concentration %” value [1, 21] of the same compound?
Answer: The value was 0.1059%.

Question: What about the “Equivalent Concentration %” value [1, 22] of the same compound?
Answer: Its value is 0.1250%.

Question: What about the “Potency of Sweetening Agent in Product” value ([2]; 7-Up-type carbonated drink) of the same compound?
Answer: Its value is less than 90.

Question: And the “Potency of Sweetening Agent in Product” value ([2]; Cola carbonated drink)?
Answer: Its value is 90.

Question: And the “Potency of Sweetening Agent in Product” value ([2]; Lemonade drink)?
Answer: The value was less than 90.

Question: And the “Potency of Sweetening Agent in Product” value ([2]; Orange gelatin dessert)?
Answer: The value was less than 90.

Question: What about the “Potency of Sweetening Agent in Product” value ([2]; Peppermint hard candy) of the same compound?
Answer: The value was less than 90.

Question: And the “Potency of Sweetening Agent in Product” value ([2]; Strawberry drink)?
Answer: The value was less than 90.

Question: What about the “Potency of Sweetening Agent in Product” value ([2]; Vanilla cakes) of the same compound?
Answer: Its value is 90.

Question: And the “Potency of Sweetening Agent in Product” value ([2]; Vanilla frozen dessert)?
Answer: Its value is less than 90.

Question: What about the “Potency of Sweetening Agent in Product” value ([2]; Vanilla pudding) of the same compound?
Answer: The value was less than 90.

Question: What about the “Sweetness relative to cane sugar” value ([3]; in water at concentrations equivalent in sweetness to a 4% solution of cane sugar) of the same compound?
Answer: The value was 130.

Question: And the “Concentration equivalent to 4% cane sugar” value ([3]; in water)?
Answer: The value was 0.031%.

Question: What does the source list for C[C@@H](NC(=O)[C@@H](N)CC(=O)O)C(=O)NC1C(C)(C)SC1(C)C [CP-54,802, 3-(L-Aspartyl-D-alaninamido)-2,2,4,4-tetramethylthietane]?
Answer: Potency Sucrose = 1 [1, 4]: 2,900 Sucrose = 1; Potency Sucrose = 1 [1, 5]: 2,850 Sucrose = 1; Potency Sucrose = 1 [1, 6]: 2,800 Sucrose = 1; Potency Sucrose = 1 [1, 7]: 2,500 Sucrose = 1; Potency Sucrose = 1 [1, 8]: 2,300 Sucrose = 1; Potency Sucrose = 1 [1, 9]: 2,250 Sucrose = 1; Potency Sucrose = 1 [1, 10]: 2,112 Sucrose = 1; Potency Sucrose = 1 [1, 11]: 2,075 Sucrose = 1; Potency Sucrose = 1 [1, 12]: 2,000 Sucrose = 1; Equivalent Concentration % [1, 14]: 0.00069%; Equivalent Concentration % [1, 15]: 0.00105%; Equivalent Concentration % [1, 16]: 0.00143%; Equivalent Concentration % [1, 17]: 0.002%; Equivalent Concentration % [1, 18]: 0.0026%; Equivalent Concentration % [1, 19]: 0.0031%; Equivalent Concentration % [1, 20]: 0.00378%; Equivalent Concentration % [1, 21]: 0.0043%; Equivalent Concentration % [1, 22]: 0.005%

Question: For OC[C@H]1O[C@@](CO)(O[C@H]2O[C@H](CO)[C@@H](O)[C@H](O)[C@H]2O)[C@@H](O)[C@@H]1O [Sucrose, reference compound], which “Potency of Sweetening Agent in Product” value ([2]; 7-Up-type carbonated drink) is on record?
Answer: Its value is 1.

Question: And the “Potency of Sweetening Agent in Product” value ([2]; Cola carbonated drink)?
Answer: The value was 1.

Question: And the “Potency of Sweetening Agent in Product” value ([2]; Lemonade drink)?
Answer: Its value is 1.

Question: What about the “Potency of Sweetening Agent in Product” value ([2]; Orange gelatin dessert) of the same compound?
Answer: Its value is 1.

Question: And the “Potency of Sweetening Agent in Product” value ([2]; Peppermint hard candy)?
Answer: Its value is 1.

Question: And the “Potency of Sweetening Agent in Product” value ([2]; Strawberry drink)?
Answer: Its value is 1.

Question: What about the “Potency of Sweetening Agent in Product” value ([2]; Vanilla cakes) of the same compound?
Answer: Its value is 1.

Question: What about the “Potency of Sweetening Agent in Product” value ([2]; Vanilla frozen dessert) of the same compound?
Answer: Its value is 1.

Question: And the “Potency of Sweetening Agent in Product” value ([2]; Vanilla pudding)?
Answer: The value was 1.

— patent US4536396A, “Synergistic sweetening compositions” (Pfizer Inc., priority 1983, dated 1985)
